Values joined by “and” are separate entries in the source; they are usually repeats but may differ in a detail not shown here. Equal values may be shown once. Where a name gives a salt, the structure may show the parent alone.
How the values were obtained:
clinical = details: for Vd: 1.5 mg m-2, volume of distribution at steady state (Vd,ss)
Description: British Journal of Cancer (1996) 73, 1268-1271 ff* (C) 1996 Stockton Press All rights reserved 0007-0920/96 $12.00 Bioavailability and pharmacokinetics of oral topotecan: a new topoisomerase I inhibitor JHM Schellens', GJ Creemers', JH Beijnen2, H Rosing2, M de Boer-Dennert', M McDonald3, B Davies4 and J Verweij' 'Department of Medical Oncology, Rotterdam Cancer Institute, 3075 EA Rotterdam, The Netherlands; 2Slotervaart Hospital, Amsterdam, The Netherlands; 3SmithKline & Beecham, UK; 4SmithKline & Beecham, USA. […] The oral dose of 1.5 mg m 2 was administered as a drinking solution of 200 ml on day 1. The i.v. dose of 1.5 mg m-2 was administered as a 30 min continuous infusion on day 2. The bioavailability was calculated as the ratio of the oral to i.v. area under the curve (AUC) calculated up to the last measured time point. […] Keywords: topotecan; bioavailability; topoisomerase I inhibitor Topotecan (SKF 104864) [(S)-9-dimethylaminomethyl-10- hydroxycamptothecin hydrochloride] is a semisynthetic water-soluble analogue of camptothecin (Hsiang and Liu, 1988). Like camptothecin, topotecan is a specific inhibitor of topoisomerase I (Hsiang and Liu, 1988). Topotecan incorporates a stable basic side-chain at the 9-position of the A-ring, which provides water solubility at acid pH. Topotecan is converted to its lactone ring-opened hydrolysis product (hydroxy acid), which reversible pathway is strongly pH dependent. The biological activity of the hydroxy acid has not been fully elucidated (Kingsbury et al., 1991). […] In the present study the bioavailability and pharmacoki- netics of oral topotecan are explored in patients with solid tumours with the aim of providing a basis for further development of clinical studies using chronic oral topotecan. […] The performance status had to be < 2 on the WHO scale and life expectancy >3 months. The minimum age was 18 and maximum age 75 years. The haemoglobulin had to be >6.0 mmol 1 -1 (9 g dl-'), WBC? 3500 ul -', granulocytes , 1000 l-d and platelets >100 000 jil-'. The serum creatinine had to be < 140 imol 1-1 (1.6 mg dl-'), the serum bilirubin <26 µmol 1` (1.5 mg dl-') and alkaline phospha- tase and transaminases <2 times the upper normal limit if liver metastases were absent or -5 times the upper normal limit if liver metastases were present. Topotecan was administered orally and intravenously at a dose of 1.5 mg m-2. Topotecan as supplied for intravenous infusion was diluted for oral dosage. […] The dose was placed in a beaker containing 100 ml of 5% dextrose injection solution. On day 1, patients were asked to drink the entire contents. Subsequently, an additional 100 ml of 5% dextrose injection solution was added to the beaker and taken by the patient. On day 2 topotecan was administered at the same dose as a continuous 30 min intravenous infusion.

[1] = design: method as in unpublished data; details: mean (s.d. 16.3), ref unpublished data; cited from earlier work
[2] = Acute tolerability of oral drinking solution and i.v. infusion of topotecan in patients; format: in vivo, human
Description: British Journal of Cancer (1996) 73, 1268-1271 ff* (C) 1996 Stockton Press All rights reserved 0007-0920/96 $12.00 Bioavailability and pharmacokinetics of oral topotecan: a new topoisomerase I inhibitor JHM Schellens', GJ Creemers', JH Beijnen2, H Rosing2, M de Boer-Dennert', M McDonald3, B Davies4 and J Verweij' 'Department of Medical Oncology, Rotterdam Cancer Institute, 3075 EA Rotterdam, The Netherlands; 2Slotervaart Hospital, Amsterdam, The Netherlands; 3SmithKline & Beecham, UK; 4SmithKline & Beecham, USA. […] The oral dose of 1.5 mg m 2 was administered as a drinking solution of 200 ml on day 1. The i.v. dose of 1.5 mg m-2 was administered as a 30 min continuous infusion on day 2. The bioavailability was calculated as the ratio of the oral to i.v. area under the curve (AUC) calculated up to the last measured time point. […] Keywords: topotecan; bioavailability; topoisomerase I inhibitor Topotecan (SKF 104864) [(S)-9-dimethylaminomethyl-10- hydroxycamptothecin hydrochloride] is a semisynthetic water-soluble analogue of camptothecin (Hsiang and Liu, 1988). Like camptothecin, topotecan is a specific inhibitor of topoisomerase I (Hsiang and Liu, 1988). Topotecan incorporates a stable basic side-chain at the 9-position of the A-ring, which provides water solubility at acid pH. […]

[3] = Table I, patients 1-12 in order, oral 1.5 mg m-2

CC[C@@](O)(C(=O)O)c1cc2n(c(=O)c1CO)Cc1cc3c(CN(C)C)c(O)ccc3nc1-2 [hydroxy acid]
plasma concentration-time curves of the hydroxy acid compared with topotecan (clinical; human, in vivo): higher than those of topotecan
ratio of the AUC(t) of the hydroxy acid after oral and i.v. administration (clinical; human, in vivo): 0.38 ± 0.12
Cmax of the hydroxy acid (clinical; human, in vivo, iv): 18.97 ± 2.44 ng/mL
terminal t1/2 of the hydroxy acid (clinical; human, in vivo, iv): 3.22 ± 0.73 h
AUC(t) of hydroxy acid, i.v. (clinical; human, in vivo, iv, 1.5 mg): 73.25 ng/h/mL
Cmax of the hydroxy acid (clinical; human, in vivo, po): 7.50 ± 2.57 ng/mL
Cmax of the hydroxy acid, range (clinical; human, in vivo, po): 4.66 + 12.32 ng ml-1
plasma concentration on day 2, before administration of the second dose (clinical; human, in vivo, po): undetectable
terminal t1/2 of the hydroxy acid (clinical; human, in vivo, po): 2.82 ± 0.85 h
AUC(t) of hydroxy acid, oral (clinical; human, in vivo, po, 1.5 mg): 31.41 ng/h/mL

CC[C@@]1(O)C(=O)OCc2c1cc1n(c2=O)Cc2cc3c(CN(C)C)c(O)ccc3nc2-1 [topotecan, (S)-9-dimethylaminomethyl-10-hydroxycamptothecin hydrochloride]
bioavailability after oral administration in dogs [1]: 35.7%
acute side-effects ([2]; i.v. and oral 1.5 mg m-2, 12 patients): Neither i.v. nor oral administration was associated with any significant acute side-effect
tolerability of the oral drinking solution ([2]; oral 1.5 mg m-2 in 200 ml, 12 patients): well tolerated
Cmax, i.v. (individual patients) (clinical; Table I, patients 1-12 in order, i.v. 1.5 mg m-2): 41.08 ng/mL and 35.92 ng/mL and 43.86 ng/mL and 33.40 ng/mL and 47.18 ng/mL and 40.35 ng/mL and 41.41 ng/mL and 41.21 ng/mL and 42.11 ng/mL and 25.35 ng/mL and 19.57 ng/mL
Cmax, oral (individual patients) (clinical; [3]): 5.93 ng/mL and 5.16 ng/mL and 5.45 ng/mL and 5.71 ng/mL and 7.14 ng/mL and 4.71 ng/mL and 5.08 ng/mL and 6.48 ng/mL and 6.67 ng/mL and 5.38 ng/mL and 6.93 ng/mL
Tmax, oral (individual patients) (clinical; [3]): 0.5 h (3×) and 1.03 h (2×) and 0.33 h and 1.13 h and 0.52 h and 0.55 h and 2.5 h and 1.5 h and 1.0 h
F (individual patients) (clinical; Table I, patients 1-12 in order, ratio AUC(t) oral/i.v.): 21% and 30% (2×) and 25% and 38% and 23% (2×) and 22% and 45% and 34% and 35% and 36%
plasma concentration on day 2, before administration of the second dose (clinical; day after oral dose 1.5 mg m-2, LLQ 0.1 ng ml-1): undetectable
Cmax (clinical; human, in vivo, iv, 1.5 mg, i.v. (individual patients)): 41.8 ng/mL
clearance (clinical; human, plasma, iv, 1.5 mg): 535 to 1070 mL/min
clearance (clinical; human, plasma, iv, 1.5 mg m-2): 824 ± 154 mL/min
half-life (clinical; human, plasma, iv, 1.5 mg m-2, half-life for the initial decline of the plasma concentration-time curve (t1/2 alpha), mean ± s.d., ten patients fitted with a biexponential model): 0.186 h
half-life (clinical; human, plasma, iv, 1.5 mg m-2, t1/2 beta, after i.v., the patient with the highest bioavailability of 45%): 1.8 h
half-life (clinical; human, plasma, iv, 1.5 mg m-2, t1/2 beta, mean ± s.d., n=12): 2.4 h
half-life (clinical; human, plasma, iv, 1.5 mg m-2, t1/2 beta, range, n=12): 1.72 to 2.93 h
Vd (clinical; human, plasma, iv, mean ± s.d., n=12): 128 L
Vd (clinical; human, plasma, iv, range, n=12): 86 to 231 L
Cmax (clinical; human, plasma, iv, 1.5 mg, mean of 12 patients, i.v. 1.5 mg m-2): 37.8 ng/mL
Tmax (clinical; human, plasma, po, 1.5 mg m-2, Tmax, range of the other 11 patients, without the patient with Tmax 2.5 h): 0.33 to 1.5 h
half-life (clinical; human, plasma, po, 1.5 mg m-2, t1/2 beta, after oral administration, the patient with the highest bioavailability of 45%): 3.2 h
half-life (clinical; human, plasma, po, 1.5 mg m-2, t1/2 beta, mean, n=10): 2.43 h
half-life (clinical; human, plasma, po, 1.5 mg m-2, t1/2 beta, range, n=10): 1.02 to 3.2 h
Cmax (clinical; human, plasma, po, 1.5 mg, mean of 12 patients, oral 1.5 mg m-2): 5.88 ng/mL
Cmax (clinical; human, plasma, po, 1.5 mg, oral (individual patients), Table I, patients 1-12 in order, oral 1.5 mg m-2): 5.95 ng/mL
Tmax (clinical; human, plasma, po, 1.5 mg, time to maximum plasma concentration (Tmax), median, oral 1.5 mg m-2, 12 patients): 0.78 h
Tmax (clinical; human, plasma, po, 1.5 mg, time to maximum plasma concentration (Tmax), range, oral 1.5 mg m-2, 12 patients): 0.33 to 2.5 h
AUC(t), range (clinical; i.v. 1.5 mg m-2): 32.50 to 73.68 ng/h/mL
AUCoo, range (clinical; i.v. 1.5 mg m-2): 43.70 to 81.08 ng/h/mL
bioavailability (ratio of oral to i.v. AUC(t)) (clinical; mean (s.d. 7.7), oral drinking solution 1.5 mg m-2 day 1 vs 30 min i.v. infusion 1.5 mg m-2 day 2, 12 patients): 30%
bioavailability if curves extrapolated to infinity (AUCoo) (clinical; mean (s.d. 11.5), oral vs i.v. 1.5 mg m-2): 32%
AUC(t) (clinical; mean ± s.d., i.v. 1.5 mg m-2): 49.87 ± 10.87 ng/h/mL
total plasma clearance (Cl) (clinical; mean ± s.d., i.v. 1.5 mg m-2 30 min infusion, n=12): 824+ 154 ml min-1
AUCoo (clinical; mean ± s.d., i.v. 1.5 mg m-2, extrapolated to infinity): 61.02 ± 10.57 ng/h/mL
AUC(t) (clinical; mean ± s.d., oral 1.5 mg m-2, up to latest measured time point): 15.18 ± 5.51 ng/h/mL
AUC(t), range (clinical; oral 1.5 mg m-2): 9.38 to 25.37 ng/h/mL
bioavailability (ratio of oral to i.v. AUC(t)), range (clinical; range over 12 patients, oral vs i.v. 1.5 mg m-2): 21-45%
